Legend:
[1] = target: T1, intracellular LCE in H2.35 cells originating in mouse liver (Mus musculus, UniProt Q920L5); test: Intracellular LCE activity inhibition test; assay type: cell-based; details: [14C]-palmitoyl CoA, C18/C16 ratio by radio HPLC
T1 construct: endogenous in cells; host or cells: H2.35 mouse liver cells
T1 sequence (Q920L5 1-267): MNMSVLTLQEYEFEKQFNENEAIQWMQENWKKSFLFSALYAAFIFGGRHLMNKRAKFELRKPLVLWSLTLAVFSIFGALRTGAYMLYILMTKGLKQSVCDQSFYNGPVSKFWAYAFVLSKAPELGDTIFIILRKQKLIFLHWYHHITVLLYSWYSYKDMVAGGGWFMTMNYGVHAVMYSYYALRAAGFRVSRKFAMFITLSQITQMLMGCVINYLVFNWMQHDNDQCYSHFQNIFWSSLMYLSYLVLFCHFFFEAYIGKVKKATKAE
Experimental: Cultured H2.35 cells originating in mouse liver were maintained in DMEM (GIBCO) containing 4% calf serum and 200 nM dexamethasone and cultured at 33° C. in the presence of 5% CO2. About 2.5×10^5 H2.35 cells were pipetted into a 24-well cell culture plate (Corning, 24-Well Cell Culture Cluster) and cultured overnight at 33° C. in the presence of 5% CO2. […] After culturing for 1 hour at 33° C. in the presence of 5% CO2, [^14C]-palmitoyl CoA (2.13 GBq/mmol, manufactured by Perkin Elmer) was added to each well and culture was conducted for additional 4 hours at 33° C. in the presence of 5% CO2. Next, each well was washed with ice-cooled phosphate-buffered physiological saline and 250 μl of 2M sodium hydroxide was added to cease the reaction. Then, the reaction solution in each well was transferred into a glass test tube and incubated at 70° C. for 1 hour. After adding 100 μl of a 5N hydrogen chloride solution, fatty acids were extracted with petroleum ether. Then [^14C]-labeled fatty acids were quantified by radio HPLC and the ratio of the amount of fatty acids having carbon chains consisting of 18 carbon atoms to the amount of those having carbon chains consisting of 16 carbon atoms (C18/C16 ratio) was calculated. The intracellular LCE inhibition activity of the test compound was calculated, based on the C18/C16 ratio of the well containing test compound-free DMSO as a control.

human LCE = target: T2, human LCE (Homo sapiens, UniProt Q9H5J4); test: LCE enzyme activity inhibition test; assay type: biochemical; details: palmitoyl CoA and [14C]-malonyl CoA, 37° C. for 90 minutes
T2 sequence (Q9H5J4 1-265): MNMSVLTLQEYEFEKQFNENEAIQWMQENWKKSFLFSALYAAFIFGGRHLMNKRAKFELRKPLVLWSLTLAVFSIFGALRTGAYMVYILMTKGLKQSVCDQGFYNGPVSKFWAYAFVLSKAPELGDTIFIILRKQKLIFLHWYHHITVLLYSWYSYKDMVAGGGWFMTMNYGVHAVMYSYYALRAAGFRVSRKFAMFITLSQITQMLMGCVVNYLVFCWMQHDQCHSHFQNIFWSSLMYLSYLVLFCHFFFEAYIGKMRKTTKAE
Experimental: The LCE enzyme activity inhibition test was carried out according to a modification of the method of Moon et al., J. Biol. Chem., Vol. 276, pp. 45358 to 45366 (2001). Namely, 1.0 μl of the diluted test compound was added to each well of a 96-well assay plate (Corning, 96-Well Assay Block). Next, 50 μl of a phosphate buffer solution (100 mM potassium phosphate buffer solution, pH 6.5) and 25 μl of a substrate solution (in 100 mM potassium phosphate buffer solution (pH 6.5), 4.0 μM rotenone, 80 μM fatty acid-free bovine serum albumin, 160 μM palmitoyl CoA, 80 μM malonyl CoA, 3.5 μM [^14C]-malonyl CoA (1.92 GBq/mmol, manufactured by Amersham) were added to each well. Further, 25 μl of an enzyme solution (in 100 mM potassium phosphate buffer solution (pH 6.5), 100 μg/ml human LCE) was added thereto. Then, the upper side of the plate was sealed up, and the plate was incubated with gently stirring at 37° C. for 90 minutes. Subsequently, 100 μl of 5 N HCl was added to each well. The reaction was ceased by stirring the assay plate at room temperature for 5 minutes and acyl CoA was hydrolyzed. Subsequently, the enzyme reaction solution in each well was adsorbed by each well of a 96-well GF/C filter plate (Perkin Elmer Unifilter 96GF/C) through which water had been preliminarily passed. After washing each well with water to remove unabsorbed malonyl CoA, the GF/C filter plate was dried at 50° C. for 60 minutes. Next, 30 μl of a scintilator (Perkin Elmer, Microschinti 0) was added to each well and the upper side of the plate was sealed up. The radioactivity of the thus fixed [^14C] was measured with a microplate scintillation counter (Perkin Elmer, Topcount) and the obtained value was referred to as the enzyme activity. The human LCE enzyme inhibition activity of the test compound was calculated, based on the radioactivity of the well containing test compound-free DMSO as a control.

[2] = activity of the optically resolved components of Production Example 1 (test not stated); details: fractions from optical resolution on CHIRALPAK AD-H

For Cc1[nH]n(-c2ccc(OC(C)C)cc2)c(=O)c1C1(C(F)(F)F)C(=O)N(c2ccccc2)C2=C1C(=O)CC(C)(C)C2 (centres unmarked) [Production Example 40, 3-[2,5-dihydro-1-(4-isopropoxyphenyl)-3-methyl-5-oxo-1H-pyrazol-4-yl]-3,5,6,7-tetrahydro-6,6-dimethyl-1-phenyl-3-trifluoromethyl-1H-indole-2,4-dione], the IC50 [1] was 38 nM and the IC50 (human LCE) was 30 nM.

In the case of Cc1[nH]n(-c2ccccc2)c(=O)c1C1(C(F)(F)F)C(=O)N(c2ccccc2)C2=C1C(=O)CC(C)(C)C2 (centres unmarked) [3-(2,5-dihydro-3-methyl-5-oxo-1-phenyl-1H-pyrazol-4-yl)-3,5,6,7-tetrahydro-6,6-dimethyl-1-phenyl-3-trifluoromethyl-1H-indole-2,4-dione], the “identified as being active” value [2] is reported as “active”.

Cc1[nH]n(-c2ccc(C(F)(F)F)cc2)c(=O)c1C1(C(F)(F)F)C(=O)N(c2ccccc2)C2=C1C(=O)CC(C)(C)C2 (centres unmarked) [Production Example 29, 3-[2,5-dihydro-3-methyl-5-oxo-1-(4-trifluoromethylphenyl)-1H-pyrazol-4-yl]-3,5,6,7-tetrahydro-6,6-dimethyl-1-phenyl-3-trifluoromethyl-1H-indole-2,4-dione] gave an IC50 [1] of 1.2 nM and an IC50 (human LCE) of 23 nM.

Compound COc1ccc(-n2[nH]c(C)c(C3(C(F)(F)F)C(=O)N(c4ccccc4)C4=C3C(=O)CC(C)(C)C4)c2=O)cc1 (centres unmarked) [Production Example 26, 3-[2,5-dihydro-1-(4-methoxyphenyl)-3-methyl-5-oxo-1H-pyrazol-4-yl]-3,5,6,7-tetrahydro-6,6-dimethyl-1-phenyl-3-trifluoromethyl-1H-indole-2,4-dione] has an IC50 [1] of 3.1 nM.

For Cc1[nH]n(-c2ccc(-c3ccccc3)cc2)c(=O)c1C1(C(F)(F)F)C(=O)N(c2ccccc2)C2=C1C(=O)CC(C)(C)C2 (centres unmarked) [Production Example 42, 3-[2,5-dihydro-3-methyl-5-oxo-1-(biphenyl-4-yl)-1H-pyrazol-4-yl]-3,5,6,7-tetrahydro-6,6-dimethyl-1-phenyl-3-trifluoromethyl-1H-indole-2,4-dione], the IC50 [1] was 25 nM and the IC50 (human LCE) was 22 nM.

Cc1[nH]n(-c2ccc(C#N)cc2)c(=O)c1C1(C(F)(F)F)C(=O)N(c2ccccc2)C2=C1C(=O)CC(C)(C)C2 (centres unmarked) [Production Example 31, 3-[1-(4-cyanophenyl)-2,5-dihydro-3-methyl-5-oxo-1H-pyrazol-4-yl]-3,5,6,7-tetrahydro-6,6-dimethyl-1-phenyl-3-trifluoromethyl-1H-indole-2,4-dione] showed an IC50 [1] of 5.4 nM.

Cc1[nH]n(-c2ccc(S(C)(=O)=O)cc2)c(=O)c1C1(C(F)(F)F)C(=O)N(c2ccccc2)C2=C1C(=O)CC(C)(C)C2 (centres unmarked) [Production Example 44, 3-[2,5-dihydro-3-methyl-(4-methylsulfonylphenyl)-5-oxo-1H-pyrazol-4-yl]-3,5,6,7-tetrahydro-6,6-dimethyl-1-phenyl-3-trifluoromethyl-1H-indole-2,4-dione] showed an IC50 [1] of 7 nM and an IC50 (human LCE) of 8.9 nM.

With Cc1[nH]n(-c2ccc(OC(F)(F)F)cc2)c(=O)c1C1(C(F)(F)F)C(=O)N(c2ccccc2)C2=C1C(=O)CC(C)(C)C2 (centres unmarked) [Production Example 36, 3-[2,5-dihydro-3-methyl-5-oxo-1-(4-trifluoromethoxyphenyl)-1H-pyrazol-4-yl]-3,5,6,7-tetrahydro-6,6-dimethyl-1-phenyl-3-trifluoromethyl-1H-indole-2,4-dione] the IC50 [1] was 0.6 nM.

With Cc1[nH]n(-c2ccc(C(C)(C)C)cc2)c(=O)c1C1(C(F)(F)F)C(=O)N(c2ccccc2)C2=C1C(=O)CC(C)(C)C2 (centres unmarked) [Production Example 35, 3-[1-(4-tert-butylphenyl)-2,5-dihydro-3-methyl-5-oxo-1H-pyrazol-4-yl]-3,5,6,7-tetrahydro-6,6-dimethyl-1-phenyl-3-trifluoromethyl-1H-indole-2,4-dione] the IC50 [1] was 4.2 nM and the IC50 (human LCE) was 15 nM.

Source: patent US8106086B2, “Indoledione derivative” (MSD K.K., priority 2007, dated 2012)
